# Test results published in EP2272817A1, “PAI-1 INHIBITOR” (Institute of Medicinal Molecular Design, Inc., priority 2008, dated 2009).
# Read-outs that look alike come from different tables or passages of the source.
# Tests used:
# recombinant human PAI-1 [1] = target: T1, recombinant human PAI-1 (Homo sapiens, UniProt P05121); assay: biochemical
# recombinant rat PAI-1 = target: T2, recombinant rat PAI-1 (Rattus norvegicus, UniProt P20961); assay: biochemical; conditions: read-out: Inhibition Rate of PAI-1 Activity (%)
# T2 sequence (P20961 24-402): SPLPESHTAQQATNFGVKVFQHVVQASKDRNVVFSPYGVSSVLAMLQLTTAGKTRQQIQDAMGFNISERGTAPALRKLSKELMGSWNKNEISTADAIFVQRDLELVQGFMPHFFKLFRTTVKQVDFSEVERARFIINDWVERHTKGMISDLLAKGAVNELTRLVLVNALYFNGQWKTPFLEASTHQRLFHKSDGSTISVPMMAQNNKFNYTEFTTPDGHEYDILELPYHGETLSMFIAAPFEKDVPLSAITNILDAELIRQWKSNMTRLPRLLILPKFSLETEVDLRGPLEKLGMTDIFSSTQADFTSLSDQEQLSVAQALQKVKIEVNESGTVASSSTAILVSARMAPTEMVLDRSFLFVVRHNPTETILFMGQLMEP
# recombinant human PAI-1 [2] = target: T1, recombinant human PAI-1; assay: Test Example 2: Human PAI-1 Inhibitory Activity (pH 7.4 HEPES buffer, 10 minutes incubation with two-chain tPA); format: biochemical; parameters: purchased Molecular Innovations, Inc; conditions: read-out: Inhibition Rate of PAI-1 Activity (%)
# Method: 0.1 M HEPES, 0.1 M NaCl. 1 mM EDTA. 0.1 % Polyethylene glycol 8,000 (Hampton Research Corporation),
# 2 mM Dimethyldecylphoshine oxide [Apo-10] (Fluka Corporation)
# recombinant human PAI-1 [3] = target: T1, recombinant human PAI-1; assay: Test Example 4: Human PAI-1 Inhibitory Activity (amount of PAI-1 bound to plate-coated one-chain tPA, ELISA); format: biochemical; parameters: purchased Molecular Innovations, Inc; conditions: human PAI-1 bound to tPA, read-out: Inhibition Rate of PAI-1 Activity (%); for inhibition at 0.3 µM: Compound Concentration 0.3µM; for inhibition at 1 µM: Compound Concentration 1µM; for inhibition at 3 µM: Compound Concentration 3µM
# Method: 100 µl of tPA solution, where one-chain recombinant tPA (hereinafter reffered to as tPA; American diagnostica, inc.) had been diluted with Buffer A to acheive a concentration of 10 µg/ml, was added to each well of a 96-well plate (Nunc Maxisorp), and the plate was incubated for one night at 4 °C to be coated with tPA. Then, after suction of tPA solution from the 96-well plate, the plate was rinsed successively with Buffer A and Buffer B. To Buffer B, solutions of the compound according to the present invention dissolved with DMSO (final DMSO concentration: 0.2 %) and recombinant human PAI-1 (Molecular Innovations, Inc.) were added. The mixtures were blended so that the final concentrations would be 0.1 to 3.0 µM and 50 ng/ml respectively, and were incubated for 15 minutes on ice. These mixed solutions were added to the rinsed 96-well plate at 100 µl/well, and incubated for 60 minutes at room temperature. To prepare a calibration curve, PAI-1 solutions without the compound according to the present invention (solutions where the final concentrations being 100, 50, 25, 12.5, 6.25, 3.13, or 1.56 ng/ml PAI-1) were added at 100 µl/well, and the plate was incubated for 60 minutes at room temperature, as standard.
# After incubation, the reaction mixture was removed by suction, and each well was rinsed with Wash Buffer. Next, anti-human PAI-1 monoclonal antibody (PROGEN Inc.) diluted with Buffer C to be 3.0 µg/ml was added to the 96-well plate at 100 µl/well, and the plate was incubated for 1 hour at room temperature. After rinsing each well with Wash Buffer, alkaline phosphatase-labeled goat anti-mouse IgG (H+L) (Jackson ImmunoResearch, Inc.) diluted with Buffer D to be 0.12 µg/ml was added at 100 µl/well, and the plate was incubated for 1 hour at room temperature. After rinsing each well with Wash Buffer, 1.0 mg/ml p-Nitrophenyl Phosphate (SIGMA) was added to the 96-well plate at 100 µl/well to start the reaction. After 30 to 60 minutes, 25 µl of 0.5 N NaOH was added to stop the reaction, and the absorbance was measured at 405 nm using a multiplate reader (GENios; TECAN G.M.B.H.).
# Based on the calibration curve prepared from the standard wells, amounts of PAI-1 bound to tPA in the wells that had been treated with the compound according to the present invention were calculated, and the PAI-1 inhibition rates by the compounds according to the present invention were obtained by the following equation. [API-1InhibitionRate(%)] = [1-(amountofPAI-1boundtotPaonthewellbytreatmentwiththecompondaccordingtothepresentinvention)/(amountofPAI-1boundtotPAonthewellbytreatmentwithPAI-1solutionnotincledingthecompondaccordingtotheinvention(solution having the final concentration of 50 nb/ml PAI-1)] × 100 [formula] • <Composition of Buffer A> 0.1 M Tris-HCl, 150 mM NaCl, pH 7.7 • <Composition of Buffer B> 50 mM sodium phosphate, 0.1 M NaCl, 1 mM EDTA, pH 6.6 • <Composition of Buffer C> 50 mM sodium phosphate, 100 mM NaCl, pH 7.4 • <Composition of Buffer D> 0.01 M Tris-HCl, 0.25 M NaCl, pH 8.0 • <Compositon of Wash Buffer> 0.05 % Tween 20, 0.1 % BSA in Buffer A • <Composition of p-Nitrophenyl Phosphate solution> 1 M Diethanolamine 0.5 mM MgCl2, p-Nitrophenyl phosphate, pH 9.8
# [4] = read-out: Inhibition Rate of PAI-1 Activity (%)
# [5] = read-out: Inhibition Rate of PAI-1 Activity (%), Compound Concentration 5µM
# [6] = read-out: Inhibition Rate of PAI-1 Activity (%), Compound Concentration 10µM
# [7] = read-out: Inhibition Rate of PAI-1 Activity (%), Compound Concentration 25µM
# T1 sequence (P05121 24-402): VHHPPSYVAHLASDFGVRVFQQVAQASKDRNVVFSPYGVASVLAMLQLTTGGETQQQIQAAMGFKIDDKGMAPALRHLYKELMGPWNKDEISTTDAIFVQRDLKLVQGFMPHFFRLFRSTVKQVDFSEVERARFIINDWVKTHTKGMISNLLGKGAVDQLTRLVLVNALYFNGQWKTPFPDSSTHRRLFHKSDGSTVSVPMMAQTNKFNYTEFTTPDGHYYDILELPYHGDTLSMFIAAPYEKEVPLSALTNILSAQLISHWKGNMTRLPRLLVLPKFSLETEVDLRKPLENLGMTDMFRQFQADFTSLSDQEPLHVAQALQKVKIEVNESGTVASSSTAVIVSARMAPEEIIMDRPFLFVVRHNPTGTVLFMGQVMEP
SMILES,inhibition at 5 µM (recombinant human PAI-1 [1]; [4]) [%],inhibition at 10 µM (recombinant human PAI-1 [1]; [4]) [%],inhibition at 25 µM (recombinant human PAI-1 [1]; [4]) [%],inhibition at 0.3 µM (recombinant rat PAI-1) [%],inhibition at 1 µM (recombinant rat PAI-1) [%],inhibition at 3 µM (recombinant rat PAI-1) [%],inhibition at 10 µM (recombinant rat PAI-1) [%],inhibition at 0.1 µM (recombinant human PAI-1 [2]) [%],inhibition at 0.3 µM (recombinant human PAI-1 [2]) [%],inhibition at 1 µM (recombinant human PAI-1 [2]) [%],inhibition at 3 µM (recombinant human PAI-1 [2]) [%],inhibition at 0.3 µM (recombinant human PAI-1 [3]) [%],inhibition at 1 µM (recombinant human PAI-1 [3]) [%],inhibition at 3 µM (recombinant human PAI-1 [3]) [%],inhibition at 5 µM (recombinant human PAI-1 [1]; [5]) [%],inhibition at 10 µM (recombinant human PAI-1 [1]; [6]) [%],inhibition at 25 µM (recombinant human PAI-1 [1]; [7]) [%]
CC(C)(C)c1ccc(Oc2cc(-c3ccc(OC(F)(F)F)cc3)ccc2OCC(=O)O)cc1 [Compound 112],34,82,95,0,14,75,96,0,19,56,> 99,0,6,36,,,
CC(C)(Oc1cccc(-c2ccc(OC(F)(F)F)cc2)c1OCc1ccc(C(C)(C)C)cc1)C(=O)O [Compound 118],,,,0,16,77,93,0,6,49,> 99,0,4,46,56,82,93
CC(C)(C)c1ccc(CN(C(=O)C(=O)O)c2cccc(-c3ccc(OC(F)(F)F)cc3)c2)cc1 [Compound 130],,,,1,16,50,> 99,0,2,18,84,1,3,15,82,96,
CC(C)(C)c1ccc(CN(C(=O)C(=O)O)c2cc(-c3ccc(OC(F)(F)F)cc3)cc(C(F)(F)F)c2)cc1 [Compound 139],,,,0,22,85,88,0,3,30,97,6,10,32,25,59,66
CC(C)(C)c1ccc(CN(C(=O)C(=O)O)c2ccc(Oc3ccc(OC(F)(F)F)cc3)cc2C(F)(F)F)cc1 [Compound 174],,,,0,11,76,94,0,0,26,96,0,7,32,61,92,91
Cc1ccc(N(Cc2ccc(C(C)(C)C)cc2)C(=O)C(=O)O)cc1-c1ccc(OC(F)(F)F)cc1 [Compound 176],,,,0,23,71,> 99,0,10,21,96,9,9,29,65,94,91
CCCOc1ccc(N(Cc2ccc(C(C)(C)C)cc2)C(=O)C(=O)O)cc1-c1ccc(OC(F)(F)F)cc1 [Compound 185],,,,3,17,85,76,0,9,34,> 99,10,20,49,81,87,89
CC(C)(C)c1ccc(CN(C(=O)C(=O)O)c2ccc(Cl)c(-c3ccc(OC(F)(F)F)cc3)c2)cc1 [Compound 186],,,,2,27,83,89,0,9,22,> 99,15,37,53,76,91,
